PubChem BioAssay (NCI)
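Here, GI50 denotes the concentration required for 50% inhibition of growth. TGI marks complete inhibition of growth.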

Legend:
Assay in all cases: NCI-60 cell line screen, 384-well format
[1] = test system: 786-0 renal
[2] = test system: A498 renal
[3] = test system: A549 NSCLC
[4] = test system: ACHN renal
[5] = test system: BT-549 breast
[6] = test system: CAKI-1 renal
[7] = test system: COLO 205 colon
[8] = test system: DU-145 prostate
[9] = test system: EKVX NSCLC
[10] = test system: HCC-2998 colon
[11] = test system: HCT-116 colon
[12] = test system: HCT-15 colon
[13] = test system: HL-60(TB) leukemia
[14] = test system: HOP-62 NSCLC
[15] = test system: HOP-92 NSCLC
[16] = test system: HS 578T breast
[17] = test system: HT29 colon
[18] = test system: IGROV1 ovarian
[19] = test system: KM12 colon
[20] = test system: LOX IMVI melanoma
[21] = test system: M14 melanoma
[22] = test system: MALME-3M melanoma
[23] = test system: MCF7 breast
[24] = test system: MDA-MB-231 breast
[25] = test system: MDA-MB-435 melanoma
[26] = test system: MDA-MB-468 breast
[27] = test system: MOLT-4 leukemia
[28] = test system: NCI-H226 lung
[29] = test system: NCI-H23 lung
[30] = test system: NCI-H322M lung
[31] = test system: NCI-H460 NSCLC
[32] = test system: NCI-H522 lung
[33] = test system: NCI/ADR-RES ovarian
[34] = test system: OVCAR-3 ovarian
[35] = test system: OVCAR-4 ovarian
[36] = test system: OVCAR-5 ovarian
[37] = test system: OVCAR-8 ovarian
[38] = test system: PC-3 prostate
[39] = test system: RPMI-8226 leukemia
[40] = test system: RXF 393 renal
[41] = test system: SF-268 CNS
[42] = test system: SF-295 CNS
[43] = test system: SF-539 CNS
[44] = test system: SK-MEL-28 melanoma
[45] = test system: SK-MEL-5 melanoma
[46] = test system: SK-OV-3 ovarian
[47] = test system: SN12C renal
[48] = test system: SNB-19 CNS
[49] = test system: SNB-75 CNS
[50] = test system: SR leukemia
[51] = test system: SW-620 colon
[52] = test system: T-47D breast
[53] = test system: TK-10 renal
[54] = test system: U251 glioblastoma
[55] = test system: UACC-257 melanoma
[56] = test system: UACC-62 melanoma
[57] = test system: UO-31 renal
[58] = test system: CCRF-CEM leukemia
[59] = test system: K-562 leukemia
[60] = test system: SK-MEL-2 melanoma

## COc1nc(N)nc2c1ncn2[C@@H]1O[C@H](CO)[C@@H](O)[C@@H]1O
[1]
  GI50: > 100 µM
  TGI: > 100 µM
[2]
  GI50: > 100 µM
  TGI: > 100 µM
[3]
  GI50: > 100 µM
  TGI: > 100 µM
[4]
  GI50: > 100 µM
  TGI: > 100 µM
[5]
  GI50: > 100 µM
  TGI: > 100 µM
[6]
  GI50: > 100 µM
  TGI: > 100 µM
[7]
  GI50: > 100 µM
  TGI: > 100 µM
[8]
  GI50: > 100 µM
  TGI: > 100 µM
[9]
  GI50: > 100 µM
  TGI: > 100 µM
[10]
  GI50: > 100 µM
  TGI: > 100 µM
[11]
  GI50: > 100 µM
  TGI: > 100 µM
[12]
  GI50: > 100 µM
  TGI: > 100 µM
[13]
  GI50: > 100 µM
  TGI: > 100 µM
[14]
  GI50: > 100 µM
  TGI: > 100 µM
[15]
  GI50: > 100 µM
  TGI: > 100 µM
[16]
  GI50: > 100 µM
  TGI: > 100 µM
[17]
  GI50: > 100 µM
  TGI: > 100 µM
[18]
  GI50: > 100 µM
  TGI: > 100 µM
[19]
  GI50: > 100 µM
  TGI: > 100 µM
[20]
  GI50: > 100 µM
  TGI: > 100 µM
[21]
  GI50: > 100 µM
  TGI: > 100 µM
[22]
  GI50: > 100 µM
  TGI: > 100 µM
[23]
  GI50: > 100 µM
  TGI: > 100 µM
[24]
  GI50: > 100 µM
  TGI: > 100 µM
[25]
  GI50: > 100 µM
  TGI: > 100 µM
[26]
  GI50: > 100 µM
  TGI: > 100 µM
[27]
  GI50: 1.31 µM
  TGI: 2.59 µM
[28]
  GI50: > 100 µM
  TGI: > 100 µM
[29]
  GI50: > 100 µM
  TGI: > 100 µM
[30]
  GI50: > 100 µM
  TGI: > 100 µM
[31]
  GI50: > 100 µM
  TGI: > 100 µM
[32]
  GI50: > 100 µM
  TGI: > 100 µM
[33]
  GI50: > 100 µM
  TGI: > 100 µM
[34]
  GI50: > 100 µM
  TGI: > 100 µM
[35]
  GI50: > 100 µM
  TGI: > 100 µM
[36]
  GI50: > 100 µM
  TGI: > 100 µM
[37]
  GI50: > 100 µM
  TGI: > 100 µM
[38]
  GI50: > 100 µM
  TGI: > 100 µM
[39]
  GI50: > 100 µM
  TGI: > 100 µM
[40]
  GI50: > 100 µM
  TGI: > 100 µM
[41]
  GI50: > 100 µM
  TGI: > 100 µM
[42]
  GI50: > 100 µM
  TGI: > 100 µM
[43]
  GI50: > 100 µM
  TGI: > 100 µM
[44]
  GI50: > 100 µM
  TGI: > 100 µM
[45]
  GI50: > 100 µM
  TGI: > 100 µM
[46]
  GI50: > 100 µM
  TGI: > 100 µM
[47]
  GI50: > 100 µM
  TGI: > 100 µM
[48]
  GI50: > 100 µM
  TGI: > 100 µM
[49]
  GI50: > 100 µM
  TGI: > 100 µM
[50]
  GI50: > 100 µM
  TGI: > 100 µM
[51]
  GI50: > 100 µM
  TGI: > 100 µM
[52]
  GI50: > 100 µM
  TGI: > 100 µM
[53]
  GI50: > 100 µM
  TGI: > 100 µM
[54]
  GI50: > 100 µM
  TGI: > 100 µM
[55]
  GI50: > 100 µM
  TGI: > 100 µM
[56]
  GI50: > 100 µM
  TGI: > 100 µM
[57]
  GI50: > 100 µM
  TGI: > 100 µM

## OCC1OC(n2cnc3c2NC=NC[C@H]3O)CC1O (some centres undefined)
[1]
  GI50: > 100 µM
  TGI: > 100 µM
[2]
  GI50: > 100 µM
  TGI: > 100 µM
[3]
  GI50: > 100 µM
  TGI: > 100 µM
[4]
  GI50: > 100 µM
  TGI: > 100 µM
[5]
  GI50: > 100 µM
  TGI: > 100 µM
[6]
  GI50: > 100 µM
  TGI: > 100 µM
[58]
  GI50: > 100 µM
  TGI: > 100 µM
[8]
  GI50: > 100 µM
  TGI: > 100 µM
[9]
  GI50: > 100 µM
  TGI: > 100 µM
[11]
  GI50: > 100 µM
  TGI: > 100 µM
[12]
  GI50: > 100 µM
  TGI: > 100 µM
[13]
  GI50: > 100 µM
  TGI: > 100 µM
[14]
  GI50: > 100 µM
  TGI: > 100 µM
[15]
  GI50: > 100 µM
  TGI: > 100 µM
[16]
  GI50: > 100 µM
  TGI: > 100 µM
[17]
  GI50: > 100 µM
  TGI: > 100 µM
[18]
  GI50: > 100 µM
  TGI: > 100 µM
[59]
  GI50: > 100 µM
  TGI: > 100 µM
[19]
  GI50: > 100 µM
  TGI: > 100 µM
[20]
  GI50: > 100 µM
  TGI: > 100 µM
[21]
  GI50: > 100 µM
  TGI: > 100 µM
[22]
  GI50: > 100 µM
  TGI: > 100 µM
[23]
  GI50: > 100 µM
  TGI: > 100 µM
[24]
  GI50: > 100 µM
  TGI: > 100 µM
[25]
  GI50: > 100 µM
  TGI: > 100 µM
[26]
  GI50: > 100 µM
  TGI: > 100 µM
[27]
  GI50: > 100 µM
  TGI: > 100 µM
[28]
  GI50: > 100 µM
  TGI: > 100 µM
[29]
  GI50: > 100 µM
  TGI: > 100 µM
[30]
  GI50: > 100 µM
  TGI: > 100 µM
[32]
  GI50: > 100 µM
  TGI: > 100 µM
[33]
  GI50: > 100 µM
  TGI: > 100 µM
[34]
  GI50: > 100 µM
  TGI: > 100 µM
[35]
  GI50: > 100 µM
  TGI: > 100 µM
[36]
  GI50: > 100 µM
  TGI: > 100 µM
[37]
  GI50: > 100 µM
  TGI: > 100 µM
[38]
  GI50: > 100 µM
  TGI: > 100 µM
[39]
  GI50: > 100 µM
  TGI: > 100 µM
[40]
  GI50: > 100 µM
  TGI: > 100 µM
[41]
  GI50: > 100 µM
  TGI: > 100 µM
[42]
  GI50: > 100 µM
  TGI: > 100 µM
[43]
  GI50: > 100 µM
  TGI: > 100 µM
[60]
  GI50: > 100 µM
  TGI: > 100 µM
[44]
  GI50: > 100 µM
  TGI: > 100 µM
[46]
  GI50: > 100 µM
  TGI: > 100 µM
[47]
  GI50: > 100 µM
  TGI: > 100 µM
[48]
  GI50: > 100 µM
  TGI: > 100 µM
[49]
  GI50: > 100 µM
  TGI: > 100 µM
[51]
  GI50: > 100 µM
  TGI: > 100 µM
[52]
  GI50: > 100 µM
  TGI: > 100 µM
[53]
  GI50: > 100 µM
  TGI: > 100 µM
[54]
  GI50: > 100 µM
  TGI: > 100 µM
[55]
  GI50: > 100 µM
  TGI: > 100 µM
[56]
  GI50: > 100 µM
  TGI: > 100 µM
[57]
  GI50: > 100 µM
  TGI: > 100 µM
